Laboratory results taken from patent publication US9399030B2, “Topically applied circulation enhancing agent and skin and hair cosmetic and bath agent containing the same” (AJINOMOTO CO., INC., priority 2005, dated 2016).

Assays:
conchae of hairless mice = experiment: Vasodilating effect on the conchae of hairless mice, visual evaluation of red spots (Examples 2 and 4); format: in vivo, hairless mouse (HR-1, female); settings: for Vasodilating effect, 1 wt %: 1 wt % in liquid paraffin; for Vasodilating effect, 1 wt % / Vasodilating effect, 5 wt %: symbols not defined in the patent; for Vasodilating effect, 5 wt %: 5 wt % in liquid paraffin; for Activity compared with capsiate: statement in the description; for Remarks: vasodilating effect: in liquid paraffin
Text: The vasodilating effects of capsinoids (a mixed product prepared by the method stated in Reference Example (5) was employed; see below) and capsaicin was compared using the conchae of hairless mice.
Test Method: A sample was applied on the right ear and a control was applied on the left ear of a hairless mouse (HR-1, female), and the development of red spots was visually evaluated.
Sample: (1) Capsinoids (1 weight percent and 5 weight percent dissolved in liquid paraffin)
(2) Capsaicin (1 weight percent and 5 weight percent dispersed in liquid paraffin)
(§1) In the same manner as in Example 2, the vasodilating effects of various capsinoid compounds were compared using the conchae of hairless mice. The samples were dissolved in liquid paraffin.

[1] = Dissolution of the sample in liquid paraffin (Example 4); format: physicochemical
Description: as §1

Structure (SMILES): COc1cc(CNC(=O)CCCC/C=C/C(C)C)ccc1O [Capsaicin, capsaicin, reference compound]
- Remarks: red spots still caused after (conchae of hairless mice; 1 weight percent application): even after two hours
- Persistence of red spots (conchae of hairless mice; 1 weight percent dispersed in liquid paraffin): retained their original form even after two hours
- Development of red spots (visual evaluation) (conchae of hairless mice; 1 weight percent in liquid paraffin, applied on ear): red spots were observed
- Vasodilating effect, 1 wt % (conchae of hairless mice): ◯
- Development of red spots (visual evaluation) (conchae of hairless mice; 5 weight percent in liquid paraffin, 30 minutes after application): clear red spots were observed
- Vasodilating effect, 5 wt % (conchae of hairless mice): ◯

Structure (SMILES): COc1cc(COC(=O)CCCC/C=C/C(C)C)ccc1O [Capsiate, 4-hydoxy-3-methoxybenzyl (E)-8-methyl-6-nonenoate]
- Vasodilating effect, 1 wt % (conchae of hairless mice): Δ
- Remarks: weak red spots still caused after (conchae of hairless mice; 5 weight percent application): caused even after 90 minutes
- Vasodilating effect, 5 wt % (conchae of hairless mice): ◯

Structure (SMILES): COc1cc(COC(=O)CCCCCCC(C)C)ccc1O [Dihydrocapsiate, 4-hydroxy-3-methoxybenzyl 8-methylnonanoate]
- Vasodilating effect, 1 wt % (conchae of hairless mice): Δ
- Remarks: weak red spots still caused after (conchae of hairless mice; 5 weight percent application): caused even after 90 minutes
- Vasodilating effect, 5 wt % (conchae of hairless mice): ◯

Structure (SMILES): COc1cc(COC(=O)CCCCCC(C)C)ccc1O [Nordihydrocapsiate, nordihydrocapsiate]
- Vasodilating effect, 1 wt % (conchae of hairless mice): Δ
- Remarks: weak red spots still caused after (conchae of hairless mice; 5 weight percent application): caused even after 90 minutes
- Vasodilating effect, 5 wt % (conchae of hairless mice): ◯

Structure (SMILES): CCC(C)CCCCC(=O)OCc1ccc(O)c(OC)c1 (centres unmarked) [Vanillyl 6-methyloctanoate, vanillyl 6-methyloctanoate]
- Remarks: disappearance of the vasodilating effect (conchae of hairless mice; 5 weight percent application): disappeared in about two hour
- Vasodilating effect, 5 wt % (conchae of hairless mice): ◯
- Activity compared with capsiate (conchae of hairless mice): about the same degree of activity as capsiate

Structure (SMILES): CCC(C)CCCCCC(=O)OCc1ccc(O)c(OC)c1 (centres unmarked) [Vanillyl 7-methylnonanoate, vanillyl 7-methylnonanoate]
- Remarks: disappearance of the vasodilating effect (conchae of hairless mice; 5 weight percent application): disappeared in about two hour
- Vasodilating effect, 5 wt % (conchae of hairless mice): ◯
- Activity compared with capsiate (conchae of hairless mice): about the same degree of activity as capsiate

Structure (SMILES): CCC(C)CCCCCCC(=O)OCc1ccc(O)c(OC)c1 (centres unmarked) [Vanillyl 8-methyldecanoate, vanillyl 8-methyldecanoate]
- Remarks: disappearance of the vasodilating effect (conchae of hairless mice; 5 weight percent application): disappeared in about two hour
- Vasodilating effect, 5 wt % (conchae of hairless mice): ◯
- Activity compared with capsiate (conchae of hairless mice): about the same degree of activity as capsiate

Structure (SMILES): COc1cc(COC(=O)CCCCCCCC(C)C)ccc1O [Vanillyl 9-methyldecanoate, vanillyl 9-methyldecanoate]
- Remarks: disappearance of the vasodilating effect (conchae of hairless mice; 5 weight percent application): disappeared in about two hour
- Vasodilating effect, 5 wt % (conchae of hairless mice): ◯
- Activity compared with capsiate (conchae of hairless mice): about the same degree of activity as capsiate

Structure (SMILES): COc1cc(CO)ccc1O [Vanillyl alcohol, reference compound]
- Remarks: vasodilating effect (conchae of hairless mice): No vasodilating effect

Structure (SMILES): CCCCCCCCCC(=O)OCc1ccc(O)c(OC)c1 [Vanillyl decanoate, 4-hydroxy-3-methoxybenzyl decanoate (caprate)]
- Vasodilating effect, 5 wt % (conchae of hairless mice): ◯
- Remarks: disappearance of the vasodilating effect (conchae of hairless mice; concentration not given): Vasodilating effect disappeared in about one hour
- Activity compared with capsiate (conchae of hairless mice): about the same degree of activity as capsiate

Structure (SMILES): CCCCCCCCCCCC(=O)OCc1ccc(O)c(OC)c1 [Vanillyl dodecanoate]
- Remarks: vasodilating effect (conchae of hairless mice): No vasodilating effect

Structure (SMILES): CC/C=C\C/C=C\C/C=C\CCCCCCCC(=O)OCc1ccc(O)c(OC)c1 [Vanillyl linolenate]
- Remarks: vasodilating effect (conchae of hairless mice): No vasodilating effect

Structure (SMILES): CCCCCCCCCCCCCCCCCC(=O)OCc1ccc(O)c(OC)c1 [Vanillyl octadecanoate]
- Remarks: vasodilating effect (conchae of hairless mice): No vasodilating effect

Structure (SMILES): CCCCCCCC(=O)OCc1ccc(O)c(OC)c1 [Vanillyl octanoate, 4-hycroxy-3-methoxybenzyl octanoate]
- Vasodilating effect, 5 wt % (conchae of hairless mice): ◯
- Remarks: disappearance of the vasodilating effect (conchae of hairless mice; concentration not given): Vasodilating effect disappeared in about one hour
- Activity compared with capsiate (conchae of hairless mice): about the same degree of activity as capsiate

Structure (SMILES): CCCCCCCC/C=C\CCCCCCCC(=O)OCc1ccc(O)c(OC)c1 [Vanillyl oleate]
- Remarks: vasodilating effect (conchae of hairless mice): No vasodilating effect

Structure (SMILES): CCCCCCCCCCCCCCC(=O)OCc1ccc(O)c(OC)c1 [Vanillyl pentadecanoate]
- Remarks: dissolution in liquid paraffin [1]: Not dissolved

Structure (SMILES): CCCCCCCCCCCCC(=O)OCc1ccc(O)c(OC)c1 [Vanillyl tridecanoate]
- Remarks: vasodilating effect (conchae of hairless mice): No vasodilating effect

Structure (SMILES): CCCCCCCCCCC(=O)OCc1ccc(O)c(OC)c1 [Vanillyl undecanoate, vanillyl undecanoate]
- Vasodilating effect, 5 wt % (conchae of hairless mice): ◯
- Remarks: disappearance of the vasodilating effect (conchae of hairless mice; concentration not given): the effect disappeared more quickly than for C10.
- Activity compared with capsiate (conchae of hairless mice): about the same degree of activity as capsiate

Structure (SMILES): CCCCCCCCC(=O)OCc1ccc(O)c(OC)c1 [vanillyl nonanoate, 4-hydroxy-3-methyloxybenzyl nonanoate]
- Activity compared with capsiate (conchae of hairless mice): about the same degree of activity as capsiate
